These results are taken from PubChem BioAssay (NCI).

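Assay format: 96-well plates, 48-hour exposure. GI50 marks 50% less growth. TGI: concentration producing complete growth inhibition.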 A value given as a limit tells only on which side of the number the result lay.

Test systems include SF-539 CNS; SN12C renal; SNB-19 CNS; HCT-116 colon; UO-31 renal; U251 CNS; OVCAR-3 ovarian; EKVX NSCLC; NCI-H23 lung; TK-10 renal.
Holding throughout (assay): growth of human tumour cells (NCI), 48 h

Consider `Cc1cc(N(CCNc2ccnc3cc(Cl)ccc23)Cc2ccco2)nc(Cl)n1`, for which the GI50 with SF-539 CNS was 1.82 µM; in the experiment with SN12C renal, 1.79 µM; in the experiment with SNB-19 CNS, 1.91 µM; with HCT-116 colon, 1.48 µM; in the experiment on UO-31 renal it was 1.49 µM; in the experiment with U251 CNS, 1.62 µM. The GI50 in the experiment with OVCAR-3 ovarian was 1.61 µM; with EKVX NSCLC, 1.61 µM; in the experiment with NCI-H23 lung, 1.77 µM; in the experiment on TK-10 renal it was 1.81 µM. Moreover, the TGI with SF-539 CNS was 3.32 µM; with SN12C renal, 3.44 µM; in the experiment on SNB-19 CNS, 3.74 µM; in the experiment on HCT-116 colon, 2.84 µM; in the experiment on UO-31 renal, 2.89 µM; in the experiment with U251 CNS it was 3.01 µM. In addition, the TGI in the experiment on OVCAR-3 ovarian was 3.01 µM; with EKVX NSCLC, 3.58 µM; in the experiment with NCI-H23 lung it was 3.93 µM; with TK-10 renal, 3.21 µM.
For `CC(=Nc1ccccc1)C1=C(O)C(Cc2ccccc2)NC1=O` (stereo not given), the GI50 is 0.0439 µM in the experiment with SF-539 CNS; 0.227 µM in the experiment on SN12C renal; 0.0765 µM in the experiment with SNB-19 CNS; 0.0363 µM in the experiment on HCT-116 colon; 0.0832 µM in the experiment on UO-31 renal; 0.0373 µM in the experiment on U251 CNS. The GI50 was 0.0237 µM in the experiment on OVCAR-3 ovarian, 0.0798 µM with EKVX NSCLC, 0.0669 µM in the experiment on NCI-H23 lung and 0.042 µM with TK-10 renal. The TGI in the experiment on SF-539 CNS is 0.501 µM; with SN12C renal, more than 100 µM; in the experiment on SNB-19 CNS it was more than 100 µM; with HCT-116 colon, 0.51 µM; in the experiment with UO-31 renal, more than 100 µM; with U251 CNS, more than 37.2 µM. The TGI was 0.0535 µM with OVCAR-3 ovarian, more than 100 µM with EKVX NSCLC, more than 100 µM in the experiment with NCI-H23 lung and more than 100 µM with TK-10 renal.
Consider `CC[C@@H](C(=O)[C@@H](C)[C@@H](O)[C@H](C)[C@@H]1O[C@@H]([C@@H](CC)C(=O)N(CC)CC)CC[C@@H]1C)C1O[C@]2(C=CC(=O)[C@]3(CC[C@@](C)([C@H]4CC[C@](O)(CC)[C@H](C)O4)O3)O2)[C@H](C)C[C@@H]1C` (stereo not given in full), for which the GI50 was 2.26 µM with SF-539 CNS; 2.41 µM in the experiment on SN12C renal; 3.31 µM in the experiment with SNB-19 CNS; 3.18 µM with HCT-116 colon; 2.42 µM with UO-31 renal; 3.1 µM in the experiment with U251 CNS. Moreover, the GI50 in the experiment on OVCAR-3 ovarian was 2.34 µM; with EKVX NSCLC, 2.75 µM; in the experiment with NCI-H23 lung, 2.4 µM; in the experiment on TK-10 renal, 3.49 µM. Further, the TGI with SF-539 CNS was 5.47 µM; with SN12C renal, 8.64 µM; with SNB-19 CNS, more than 100 µM; with HCT-116 colon, 17.4 µM; with UO-31 renal, 10.2 µM; in the experiment with U251 CNS, 13.4 µM. Moreover, the TGI in the experiment on OVCAR-3 ovarian was 6.49 µM; in the experiment on EKVX NSCLC, 18.6 µM; in the experiment on NCI-H23 lung it was 6.91 µM; in the experiment with TK-10 renal, more than 100 µM.
As for `C=C(Br)N(CC)CC`, the TGI in the experiment with SF-539 CNS, in the experiment with SN12C renal, in the experiment on SNB-19 CNS, in the experiment on HCT-116 colon, with UO-31 renal and with U251 CNS was more than 100 µM throughout. The TGI in the experiment on OVCAR-3 ovarian, in the experiment on EKVX NSCLC, in the experiment on NCI-H23 lung and in the experiment on TK-10 renal was more than 100 µM in each case.
For `N#CSCC1CC(O)(c2ccccc2)CC(c2ccc(F)cc2)O1` (stereo not given), the GI50 with SF-539 CNS was 1.96 µM; in the experiment on SN12C renal, 1.8 µM; with SNB-19 CNS, 4.14 µM; in the experiment on HCT-116 colon it was 1.63 µM; with UO-31 renal it was 1.82 µM; in the experiment on U251 CNS, 1.7 µM. Also, the GI50 was 1.45 µM in the experiment with OVCAR-3 ovarian, 1.94 µM in the experiment with EKVX NSCLC, 2.02 µM in the experiment with NCI-H23 lung and 2.07 µM in the experiment with TK-10 renal. For the same molecule, the TGI with SF-539 CNS was 3.66 µM; with SN12C renal, 3.47 µM; in the experiment on SNB-19 CNS, 13.7 µM; in the experiment with HCT-116 colon, 2.98 µM; with UO-31 renal it was 6.03 µM; in the experiment with U251 CNS it was 3.13 µM. In addition, the TGI turned out to be 2.76 µM in the experiment on OVCAR-3 ovarian, 5.43 µM with EKVX NSCLC, 5.32 µM with NCI-H23 lung and 5.77 µM with TK-10 renal.
Consider `COc1cc2c(cc1C)NC(=O)/C2=C\c1cccc(Oc2ccccc2)c1`, for which the GI50 in the experiment with SF-539 CNS is 19.4 µM; with SN12C renal, 13.2 µM; with SNB-19 CNS, 14.3 µM; in the experiment with HCT-116 colon, 7.88 µM; in the experiment on UO-31 renal, 11.7 µM; with U251 CNS, 12.4 µM. Also, the GI50 is 13.2 µM in the experiment on OVCAR-3 ovarian, 15.4 µM in the experiment with EKVX NSCLC, 13.6 µM in the experiment with NCI-H23 lung and 23.3 µM in the experiment with TK-10 renal. For the same molecule, the TGI in the experiment on SF-539 CNS was 34.5 µM; with SN12C renal it was 25.9 µM; in the experiment with SNB-19 CNS it was 28.1 µM; with HCT-116 colon, 20.4 µM; in the experiment on UO-31 renal it was 27.5 µM; in the experiment on U251 CNS, 24.9 µM. The TGI came out at 26.8 µM in the experiment on OVCAR-3 ovarian, 41.7 µM in the experiment on EKVX NSCLC, 28.3 µM in the experiment on NCI-H23 lung and 50.6 µM with TK-10 renal.
